Patent US7951805B2, “Heterocyclic derivatives and their use as mediators of stearoyl-CoA desaturase” (Xenon Pharmaceuticals Inc., priority 2004, dated 2011)

melting point	SMILES
158 to 163 °C	Cl.O=C(NCCC1CC1)c1ccc(N2CCC(Nc3ccccc3C(F)(F)F)CC2)nn1
117 to 121 °C	Cl.O=C(NCCCC1CC1)c1ccc(N2CCC(Nc3ccccc3C(F)(F)F)CC2)nn1

The next lines start with the compound.

SMILES	melting point
O=C(NCCCC1CC1)c1ccc(N2CCC(N3C(=O)C(F)(F)c4ccccc43)CC2)nn1	51 to 53 °C
Cl.O=C(NCCC1CC1)c1ccc(N2CCC(Nc3ccc(F)cc3C(F)(F)F)CC2)nn1	134 to 137 °C
CCCCCNC(=O)c1ccc(N2CCC(Nc3ccc(F)cc3C(F)(F)F)CC2)nn1.Cl	136 to 139 °C
Cl.O=C(NCCCC1CC1)c1ccc(N2CCC(Nc3ccc(F)cc3C(F)(F)F)CC2)nn1	143 to 147 °C
